From BindingDB's records for doi:10.1021/jm5002919 (Takeda Pharmaceutical, 2014)

Molecular target: G-protein coupled receptor 52 (Homo sapiens, UniProt Q9Y2T5)
Assay: Agonist activity at human GPR52 expressed in CHO cells assessed as cAMP production after 30 mins by Alphascreen assay

G-protein coupled receptor 52, sequence (Q9Y2T5 whole entry): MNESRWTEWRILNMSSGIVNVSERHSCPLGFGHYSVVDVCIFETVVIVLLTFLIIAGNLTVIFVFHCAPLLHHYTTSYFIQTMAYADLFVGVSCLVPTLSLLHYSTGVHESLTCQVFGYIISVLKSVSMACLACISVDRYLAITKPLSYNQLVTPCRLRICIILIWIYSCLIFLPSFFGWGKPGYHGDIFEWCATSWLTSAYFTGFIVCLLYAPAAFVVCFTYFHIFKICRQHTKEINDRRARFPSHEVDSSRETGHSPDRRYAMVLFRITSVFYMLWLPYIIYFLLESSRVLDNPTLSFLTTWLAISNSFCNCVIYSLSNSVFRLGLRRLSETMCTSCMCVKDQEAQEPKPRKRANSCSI

EC50: > 10 µM
SMILES: COc1ccc(-c2ccnc(NCCc3ccc(OC)c(OC)c3C)n2)cc1
